Experimental findings from patent US20260083751A1, “ALLOSTERIC MODULATORS OF ANDROGEN RECEPTOR COACTIVATOR RECRUITMENT FOR CRPC THERAPY” (University of Pittsburgh – Of the Commonwealth System of …, priority 2022, published 2026) are described below.

Usually IC50 stands for the concentration at which inhibition is half-maximal.

The structures appear in SMILES notation. Entries after “also recorded” stand apart in the source; their conditions may differ. Bounds are passed on as bounds.

The first test concerns DHT-induced AR-mediated PSA promoter-driven transcription in PC3-AR-FL-GFP cells. Briefly: PSA promoter-driven transcription in PC3-AR-FL-GFP cells. It counts as cell-based.
Conditions: not given
The method, then:
Compounds 1-5 were assessed to determine whether each compound could block DHT-induced AR-TIF2 PPI (protein-protein interaction complex) formation and/or disrupt preformed DHT-induced AR-TIF2 PPIs. Additionally, the following activities were evaluated: • inhibition of DHT-induced AR-mediated PSA promoter-driven transcription in C4-2 CRPC cells; • inhibition of DHT-induced AR-LBD PPI interactions with TIF2 and SRC1 coactivators; • inhibition of DHT-induced AR-LBD PPI interactions with TIF2 Box III-LXXLL peptide; • inhibition of H^3-DHT binding to AR-LBD; • inhibition of DHT-induced AR-mediated PSA promoter-driven transcription in PC3-AR-FL-GFP cells; • inhibition of constitutive AR-V7-mediated PSA promoter-driven transcription in PC3-AR-V7 GFP cells; • inhibition of constitutive UBE2C promoter-driven transcription in PC3-AR-V7 GFP cells; • inhibition of growth in AR-negative prostate cancer (PCa) cell lines PC3 and DU145; and • inhibition of growth in AR-positive PCa cell lines LNCap, C4-2 (CRPC), and 22Rv1 (CRPC).
On to `Cc1c(-c2ccc(F)cc2)[nH]c2ccc(CNC(=O)c3ccc(CO)o3)cc12` [Compound S3-15], for which the half-inhibitory concentration (IC50) was approximately 10 µM.

For the compound `Cc1ccccc1-c1cc(O)c2c(c1)CN(c1nc(C(N)=O)cs1)CCO2` [Compound S1-1], the IC50 was less than 44 µM.

As to `CC(=O)NCCC(=O)NCc1ccc2[nH]c(-c3ccccc3F)c(C)c2c1` [Compound S3-13], the IC50 is more than 100 µM.

Compound `Cc1c(-c2ccccc2F)[nH]c2ccc(CNC(=O)CCc3cn[nH]c3)cc12` [Compound S3-11] yielded an IC50 of approximately 50 µM.

The target in the next test is T1, AR (Homo sapiens, UniProt P10275, T878A).
T1 construct: the amount of soluble AR protein in heat shocked C4-2 cell lysates; endogenous in cells; host or cells: C4-2 castration resistant prostate cancer cells
T1 sequence (P10275 1-920 T878A): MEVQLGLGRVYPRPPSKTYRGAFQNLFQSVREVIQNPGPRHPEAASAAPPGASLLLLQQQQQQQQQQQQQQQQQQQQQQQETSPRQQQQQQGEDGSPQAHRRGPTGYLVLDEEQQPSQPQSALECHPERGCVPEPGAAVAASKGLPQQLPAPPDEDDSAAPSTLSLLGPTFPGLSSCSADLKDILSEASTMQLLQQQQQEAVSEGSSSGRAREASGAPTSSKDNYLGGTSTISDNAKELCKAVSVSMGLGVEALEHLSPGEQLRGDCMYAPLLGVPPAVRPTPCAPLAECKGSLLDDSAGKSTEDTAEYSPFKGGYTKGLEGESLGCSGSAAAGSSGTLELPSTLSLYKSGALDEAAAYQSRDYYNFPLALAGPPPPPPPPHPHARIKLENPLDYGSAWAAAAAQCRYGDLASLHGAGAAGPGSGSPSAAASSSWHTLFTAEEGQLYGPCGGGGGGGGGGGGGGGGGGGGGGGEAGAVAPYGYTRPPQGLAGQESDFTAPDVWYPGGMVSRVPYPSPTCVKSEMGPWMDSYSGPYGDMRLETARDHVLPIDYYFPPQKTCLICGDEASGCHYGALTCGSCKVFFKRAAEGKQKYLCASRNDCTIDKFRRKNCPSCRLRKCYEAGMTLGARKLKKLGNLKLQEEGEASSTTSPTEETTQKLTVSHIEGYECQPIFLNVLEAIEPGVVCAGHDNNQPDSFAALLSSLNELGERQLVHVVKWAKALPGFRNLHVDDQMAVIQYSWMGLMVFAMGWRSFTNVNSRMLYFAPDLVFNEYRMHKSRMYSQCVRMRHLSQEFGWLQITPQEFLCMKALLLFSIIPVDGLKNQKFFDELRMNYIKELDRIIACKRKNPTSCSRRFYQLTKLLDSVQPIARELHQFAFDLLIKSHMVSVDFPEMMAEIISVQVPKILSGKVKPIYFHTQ
Put plainly: AlphaScreen cellular thermal shift assay (CETSA) for AR target engagement in C4-2 cells. To be noted: 20 μM and 50 μM compound. It is filed as cell-based. On the procedure:
Mouse anti-hAR (BD Biosciences, San Jose, CA) and rabbit anti-hAR (MilliporeSigma, Burlington, MA) were diluted 1:330 and 1:1000 fold respectively in PBS containing 0.5 mg/mL BSA and 4 μL of the combined diluted AR antibody pair were added to 4 μL of the cell lysate supernatant in a 384-well plate and incubated in the dark for 30 min at room temperature. To each well of the 384-well plate 4 μL of a combined solution of anti-mouse IgG Alpha Donor and anti-rabbit IgG (Fc specific) AlphaLISA® Acceptor beads (Perkin Elmer, Waltham, MA) suspended in 1× lysis buffer was added to yield a final donor and acceptor bead concentrations of 40 μg/mL and 10 μg/mL respectively.
Take `Cc1c(-c2ccccc2F)[nH]c2ccc(CNC(=O)CCc3cn[nH]c3)cc12` [Compound S3-11]: the “DHT-enhanced AR stability at 46° C.” value is reported as “inhibited DHT-enhanced AR stability”.

The test is the same for the next values; noted with them: 20 or 50 μM compound.
For `Cc1c(-c2ccccc2F)[nH]c2ccc(CNC(=O)CCc3cn[nH]c3)cc12` [Compound S3-11], the “Right shift of the DHT EC50” value is listed as not below 10 fold.

Still in this test, the particulars now being: C4-2 cells, 20 μM where stated, 46° C. for 5 min.
In the case of `Cc1ccccc1-c1cc(O)c2c(c1)CN(c1nc(C(N)=O)cs1)CCO2` [Compound S1-1], the “AR thermal stability at 46° C., compound alone” value is “did not stabilize AR”.

For the compound `Cc1c(-c2ccccc2F)[nH]c2ccc(CNC(=O)CCc3cn[nH]c3)cc12` [Compound S3-11], the “AR thermal stability at 46° C., compound alone” value is listed as “did not stabilize AR”.

Still in this test, the particulars now being: C4-2 cells, compound 20 μM where stated, 10 nM DHT.
`Cc1ccccc1-c1cc(O)c2c(c1)CN(c1nc(C(N)=O)cs1)CCO2` [Compound S1-1]: the “DHT-induced (DHT-enhanced) AR thermal stability at 46° C.” value is recorded as “blocked DHT-enhanced AR thermal stabilization; also recorded: inhibition of DHT-enhanced AR thermal stability”.

`Cc1c(-c2ccccc2F)[nH]c2ccc(CNC(=O)CCc3cn[nH]c3)cc12` [Compound S3-11]: the “DHT-induced (DHT-enhanced) AR thermal stability at 46° C.” value was “blocked DHT-enhanced AR thermal stabilization; also recorded: inhibition of DHT-enhanced AR thermal stability”.

Still in this test, the particulars now being: S2-6 at 20 or 50 μM; S3-11 at 50 μM.
For the compound `Cc1c(-c2ccccc2F)[nH]c2ccc(CNC(=O)CCc3cn[nH]c3)cc12` [Compound S3-11], the “Maximum efficacy of DHT-enhanced AR thermal stabilization” value is “reduced the maximum efficacy of DHT”.

Staying with this test, now noted: read-out: IC50, inhibition of DHT-induced AR stability at 46° C.
Turning to `Cc1c(-c2ccc(F)cc2)[nH]c2ccc(CNC(=O)c3ccc(CO)o3)cc12` [Compound S3-15], the IC50 is 86.1 µM.

For the compound `Cc1c(-c2ccccc2F)[nH]c2ccc(CNC(=O)CCc3cn[nH]c3)cc12` [Compound S3-11], the IC50 came out at 29.9 µM.

The subject of the next test is UBE2C promoter-driven transcription in PC3-AR-V7-GFP cells. Put plainly: UBE2C promoter driven luciferase reporter assay in PC3-AR-V7-GFP cells. It counts as cell-based. The note with it: 24 h, 24 h exposure; read-out: IC50 in UBE2C-Luc AR-V7 reporter assay (potency range in words). On the procedure:
UBE2C Promoter Driven Luciferase Reporter Assay in PC3-AR-V7-GFP Cells: The pGL4.28-UBE2C 20bpX3 luciferase reporter plasmid (Xu et al., Cancer Res 2015, 75:3663-71) was provided by Dr. Yan Dong from Tulane University. FuGENE® HD transfection agent and the UBE2C-Luc plasmid (10 ng/well) were combined at a 3:1 (μL:μg) ratio, in Opti-MEM™ medium and incubated for 25 min at RT before being added to PC3-AR-V7-GFP cells that were suspended in RPMI 1640 (Gibco) media containing 1% L-glutamine (Invitrogen), and 10% fetal bovine serum (Gemini Bio-products). Bulk transfected PC3-AR-V7-GFP cells were seeded into white opaque 384-well assay plates (Greiner Bio-one, #781080) at a density of 3,000 cell per well in a volume of […] and incubated at 5% CO2, 37° C., and 95% humidity for 24 h. After 24 h, 10 μL of compounds were transferred to assay wells and the plates were returned to the incubator for an additional 24 h before 25 μL of BrightGlo® luciferase reagent (Promega) was added to the wells and the RLU's were captured on a SpectraMax® M5e plate reader (Molecular Devices LLC) as described previously (Ibid.).
A general note: In a reporter assay the amount or activity of a reporter protein is the signal.
On to `Cc1c(-c2ccc(F)cc2)[nH]c2ccc(CNC(=O)c3ccc(CO)o3)cc12` [Compound S3-15], for which the IC50 lay in the range of 10 to 100 µM.

Take `Cc1c(-c2ccccc2F)[nH]c2ccc(CNC(=O)CCc3cn[nH]c3)cc12` [Compound S3-11]: the IC50 was in the range of 10 to 100 µM.

The test is the same for the next values; noted with them: PC3-AR-V7-GFP cells, constitutive; read-out: Inhibition AR-V7 UBE2C-reporter IC50.
Turning to `Cc1ccccc1-c1cc(O)c2c(c1)CN(c1nc(C(N)=O)cs1)CCO2` [Compound S1-1], the IC50 was less than 35 µM.

On to `CC(=O)NCCC(=O)NCc1ccc2[nH]c(-c3ccccc3F)c(C)c2c1` [Compound S3-13], for which the IC50 is more than 100 µM.

As for `Cc1c(-c2ccccc2F)[nH]c2ccc(CNC(=O)CCc3cn[nH]c3)cc12` [Compound S3-11], the IC50 came to 12 µM.

Another test concerns DHT-induced full length AR PSA promoter-driven transcription in C4-2 CRPC cells. Put plainly: PSA-6.1 luciferase reporter assay in C4-2 CRPC cells. The note with it: C4-2, 24 h, 24 h exposure; read-out: IC50 in PSA-Luc reporter assay, C4-2 cells (potency range in words). It counts as cell-based. On the procedure: Prostate Specific Antigen (PSA)-6.1 Luciferase Reporter Assay in the C4-2 CRPC Cell Line: The PSA-6.1-Luc luciferase reporter plasmid was provided by Dr. Zhou Wang in the Urology department of the University of Pittsburgh Cancer Institute. The PSA-6.1-Luc reporter is controlled by a fragment of the PSA promoter that contains at least three AREs. The PSA-6.1-Luc plasmid (12 ng/well) was combined with FuGENE® 6 transfection agent at a ratio 6:1 in SFM and incubated for 25 minutes at room temperature before being combined with C4-2 cells suspended in RPMI 1640 media containing 1% penicillin-streptomycin, 1% L-glutamine, and 10% FBS. Transfected cells were then seeded into white opaque 384-well assay plates (Greiner Bio-one, #781080) at 6,000 cells per well in a volume of 30 μL and incubated in 5% CO2, 37° C., and 95% humidity for 24 h.
As for `Cc1c(-c2ccc(F)cc2)[nH]c2ccc(CNC(=O)c3ccc(CO)o3)cc12` [Compound S3-15], the half-maximal inhibitory concentration (IC50) lay within 1 to 10 µM.

Turning to `Cc1c(-c2ccccc2F)[nH]c2ccc(CNC(=O)CCc3cn[nH]c3)cc12` [Compound S3-11], the IC50 is 1 to 10 µM.

The test is the same for the next values; noted with them: C4-2 CRPC cells; listed as 1; read-out: Inhibition of DHT-induced full length AR PSA reporter IC50.
As to `Cc1ccccc1-c1cc(O)c2c(c1)CN(c1nc(C(N)=O)cs1)CCO2` [Compound S1-1], the IC50 amounted to 5.27 µM.

Still in this test, the particulars now being: C4-2 CRPC cells; read-out: Inhibition of DHT-induced full length AR PSA reporter IC50.
Consider `Cc1ccccc1-c1cc(O)c2c(c1)CN(c1cc(N)ncn1)CCO2` [Compound S1-4], for which the IC50 is less than 37 µM.

On to `Cc1ccccc1-c1cc(O)c2c(c1)CN(c1nccs1)CCO2` [Compound S1-3], for which the IC50 was less than 37 µM.

`COc1cc(-c2ccc(C)s2)cc2c1OCCN(c1nc(C(N)=O)cs1)C2` [Compound S1-5]: the IC50 was less than 37 µM.

Regarding `Cc1c(-c2ccccc2F)[nH]c2ccc(CNC(=O)CCc3cn[nH]c3)cc12` [Compound S3-11], the IC50 was found to be 4.21 µM.

Staying with this test, now noted: b132; read-out: IC50, DHT-induced AR-mediated PSA promoter-driven transcription in C4-2 CRPC cells.
`CC(=O)NCCC(=O)NCc1ccc2[nH]c(-c3ccccc3F)c(C)c2c1` [Compound S3-13]: the half-inhibitory concentration (IC50) is 40 to 59 µM.
